Data: EPA's ToxRefDB 2

Experiments:
[1] = test system: rat; settings: Subchronic oral toxicity in rodents, sprague dawley, Gavage/Intubation, dose end: 13 week, group: systemic
[2] = test system: rat; settings: Subchronic dermal toxicity, sprague dawley, Topical, dose end: 13 week, group: systemic
[3] = test system: dog; settings: Subchronic oral toxicity in nonrodent, beagle, Feed, dose end: 90 day, group: systemic
[4] = test system: rat; settings: Subchronic oral toxicity in rodents, sprague dawley, Feed, dose end: 90 day, group: systemic
[5] = test system: dog; settings: Chronic toxicity, beagle, Oral, Feed, dose end: 52 week, group: systemic
[6] = test system: mouse; settings: Subchronic oral toxicity in rodents, other, Feed, dose end: 90 day, group: systemic
[7] = test system: mouse; settings: Combined chronic toxicity/carcinogenicity; Oral; Feed; dose end: 104 week; group: systemic; systemic / in life observation / water consumption / water consumption + systemic / pathology gross / full gross necropsy / abdominal cavity…
[8] = test system: rat; settings: Combined chronic toxicity/carcinogenicity; sprague dawley; Oral; Feed; dose end: 104 week; group: systemic; systemic / clinical chemistry / alanine aminotransferase (alt/sgpt) / alanine aminotransferase (alt/sgpt) + systemic / clinical chemistry / …
[9] = test system: rat; settings: Prenatal developmental toxicity study, sprague dawley, Oral, Gavage/Intubation, dose end: 19 GD
[10] = test system: rat; settings: Multigenerational reproductive toxicity study, Charles River CD, Oral, Feed, dose end: 2 generation
[11] = test system: rat; settings: Subchronic oral toxicity in rodents, sprague dawley, Feed, dose end: 13 week, group: systemic
[12] = test system: mouse; settings: Subchronic oral toxicity in rodents, cd1, Feed, dose end: 13 week, group: systemic
[13] = test system: dog; settings: Chronic toxicity, beagle, Oral, Feed, dose end: 52 week, group: systemic; remark: listed apart in the source
[14] = test system: mouse; settings: Carcinogenicity; cd1; Oral; Feed; dose end: 78 week; group: systemic; systemic / organ weight / liver / nos + systemic / organ weight / liver / relative to body weight + systemic / pathology microscopic / liver…
[15] = test system: rat; settings: Subchronic oral toxicity in rodents, other, Gavage/Intubation, dose end: 90 day, group: systemic, systemic / hematology / erythrocyte (rbc) count differential / erythrocyte (rbc) + systemic / hematology / hematocrit (hct) / hematocrit (…
[16] = test system: dog; settings: Subchronic oral toxicity in nonrodent, beagle, Feed, dose end: 100 day, group: systemic
[17] = test system: dog; settings: Chronic toxicity, beagle, Oral, Feed, dose end: 373 day, group: systemic
[18] = test system: rat; settings: Prenatal developmental toxicity study, wistar, Oral, Gavage/Intubation, dose end: 15 GD
[19] = test system: rat; settings: Chronic toxicity, wistar, Oral, Feed, dose end: 24 month, group: systemic
[20] = test system: dog; settings: Chronic toxicity; beagle; Oral; Feed; dose end: 371 day; group: systemic; systemic / clinical chemistry / alanine aminotransferase (alt/sgpt) / alanine aminotransferase (alt/sgpt) + systemic / clinical chemistry / …
[21] = test system: mouse; settings: Carcinogenicity; other; Oral; Feed; dose end: 18 month; group: systemic; systemic / in life observation / body weight / body weight + systemic / in life observation / body weight / body weight gain
[22] = test system: rat; settings: Multigenerational reproductive toxicity study, wistar, Oral, Feed, dose end: 2 generation
[23] = test system: mouse; settings: Subchronic oral toxicity in rodents, b6c3f1, Feed, dose end: 90 day, group: systemic
[24] = test system: rat; settings: Carcinogenicity, other, Oral, Feed, dose end: 24 month, group: systemic
[25] = test system: rat; settings: Subchronic oral toxicity in rodents, wistar, Feed, dose end: 3 month, group: systemic
[26] = systemic / pathology microscopic / stomach / infiltration cellular + systemic / pathology gross / stomach / discolored + systemic / …
[27] = systemic / pathology microscopic / stomach / infiltration cellular + systemic / pathology gross / stomach / prominent limiting ridge + …
[28] = systemic / in life observation / clinical signs / erythema + systemic / in life observation / clinical signs / body surface staining + …
[29] = systemic / in life observation / clinical signs / erythema + systemic / pathology microscopic / skin / hyperplasia + systemic / pathology …
[30] = systemic / clinical chemistry / alanine aminotransferase (alt/sgpt) / alanine aminotransferase (alt/sgpt) + systemic / clinical chemistry / …
[31] = systemic / organ weight / ovary / absolute + systemic / organ weight / ovary / relative to body weight
[32] = systemic / clinical chemistry / cholesterol / cholesterol + systemic / organ weight / kidney / absolute + systemic / organ weight / kidney…
[33] = systemic / organ weight / liver / absolute + systemic / organ weight / liver / relative to body weight + systemic / pathology microscopic / …
[34] = systemic / pathology microscopic / liver / hypertrophy
[35] = group: developmental, developmental / developmental malformation / bone / bent + developmental / developmental malformation / bone / incomplete ossification + …
[36] = group: maternal, systemic / in life observation / body weight / body weight gain + systemic / in life observation / clinical signs / lethargy + systemic / in…
[37] = group: offspring, systemic / in life observation / body weight / offspring (pup) weight + systemic / organ weight / liver / absolute + systemic / organ weight…
[38] = group: parental, systemic / organ weight / spleen / relative to body weight
[39] = group: reproductive, reproductive / reproductive performance / fertility / fertility
[40] = group: reproductive, reproductive / reproductive performance / fertility / fertility + reproductive / offspring survival early / birth index / live birth index
[41] = systemic / hematology / erythrocyte (rbc) count differential / erythrocyte (rbc)
[42] = systemic / pathology microscopic / liver / [other] + systemic / pathology microscopic / liver / hematopoietic cell proliferation + systemic…
[43] = systemic / organ weight / adrenal gland / absolute + systemic / organ weight / heart / absolute + systemic / organ weight / spleen / …
[44] = systemic / pathology gross / prostate / reduced size
[45] = systemic / pathology gross / urinary bladder / foci
[46] = group: developmental, developmental / developmental malformation / bone / unossified + developmental / developmental malformation / ureter / hydroureter + …
[47] = group: maternal, systemic / in life observation / food consumption / food consumption + reproductive / reproductive performance / resorptions / resorptions…
[48] = systemic / pathology microscopic / liver / adenoma/carcinoma combined + systemic / pathology microscopic / liver / carcinoma + systemic / in…
[49] = group: offspring, systemic / in life observation / body weight / offspring (pup) weight + systemic / in life observation / body weight / offspring (pup) …
[50] = group: parental, systemic / in life observation / body weight / body weight + systemic / in life observation / body weight / body weight gain + systemic / in…
[51] = systemic / pathology microscopic / heart / vacuolization + systemic / pathology microscopic / liver / hypertrophy
[52] = systemic / pathology microscopic / heart / vacuolization + systemic / pathology microscopic / liver / hypertrophy + systemic / clinical …
[53] = systemic / pathology microscopic / liver / polymorphism
[54] = systemic / clinical chemistry / albumin / albumin + systemic / clinical chemistry / creatinine / creatinine + systemic / clinical chemistry…
[55] = systemic / clinical chemistry / creatinine / creatinine

## OCCN1CN(CCO)CN(CCO)C1 [1,3,5-Triazine-1,3,5(2H,4H,6H)-triethanol]
[1]; [26]
  NEL: 50 mg/kg/day
  NOAEL: 50 mg/kg/day
[1]; [27]
  LEL: 100 mg/kg/day
  LOAEL: 100 mg/kg/day
[2]; [28]
  LEL: 5 mg/kg/day
  NEL: < 5 mg/kg/day
[2]; [29]
  LOAEL: 50 mg/kg/day
  NOAEL: 5 mg/kg/day

## COC(=O)c1ccccc1CS(=O)(=O)NC(=O)Nc1nc(OC)cc(OC)n1 [Bensulfuron-methyl]
[3]; [30]
  LOAEL: 340 mg/kg/day
  NOAEL: 32.1 mg/kg/day
[3]; [31]
  LEL: 3.5 mg/kg/day
  NEL: < 3.5 mg/kg/day
[4]; [32]
  LOAEL: 474 mg/kg/day
  NOAEL: 93 mg/kg/day
[4]; [33]
  LEL: 7.5 mg/kg/day
  NEL: < 7.5 mg/kg/day
[5]; [30]
  LOAEL: 223 mg/kg/day
  NEL: 1.4 mg/kg/day
  NOAEL: 19.9 mg/kg/day
[5]; systemic / organ weight / spleen / absolute + systemic / organ weight / spleen / relative to body weight
  LEL: 19.9 mg/kg/day
[6]; [34]
  LEL: 38.9 mg/kg/day
  LOAEL: 387 mg/kg/day
  NEL: < 38.9 mg/kg/day
[6]; systemic / pathology microscopic / liver / hypertrophy + systemic / organ weight / liver / absolute + systemic / organ weight / liver / …
  NOAEL: 132 mg/kg/day
[7]
  LEL: 455 mg/kg/day
  LOAEL: 455 mg/kg/day
  NEL: 226 mg/kg/day
  NOAEL: 226 mg/kg/day

## CCOC(=O)C(C)OC(=O)c1cc(Oc2ccc(C(F)(F)F)cc2Cl)ccc1[N+](=O)[O-] (stereo not given) [Lactofen]
[8]
  LEL: 19 mg/kg/day
  LOAEL: 19 mg/kg/day
  NEL: 2 mg/kg/day
  NOAEL: 2 mg/kg/day
[9]; [35]
  LEL: 150 mg/kg/day
  LOAEL: 150 mg/kg/day
  NEL: 50 mg/kg/day
  NOAEL: 50 mg/kg/day
[9]; [36]
  LEL: 150 mg/kg/day
  LOAEL: 150 mg/kg/day
  NEL: 50 mg/kg/day
  NOAEL: 50 mg/kg/day
[10]; [37]
  LEL: 26.7 mg/kg/day
  LOAEL: 26.7 mg/kg/day
  NEL: 2.7 mg/kg/day
  NOAEL: 2.7 mg/kg/day
[10]; group: parental, systemic / in life observation / mortality / mortality
  LOAEL: 32.9 mg/kg/day
[10]; group: parental, systemic / in life observation / mortality / mortality + systemic / in life observation / body weight / body weight + systemic / organ …
  NOAEL: 3.3 mg/kg/day
[10]; [38]
  LEL: 3.3 mg/kg/day
  NEL: < 3.3 mg/kg/day
[10]; [39]
  LEL: 26.7 mg/kg/day
  LOAEL: 26.7 mg/kg/day
[10]; [40]
  NEL: 2.7 mg/kg/day
  NOAEL: 2.7 mg/kg/day
[11]; [30]
  LOAEL: 73.7 mg/kg/day
  NOAEL: 14.1 mg/kg/day
[11]; [41]
  LEL: 2.9 mg/kg/day
  NEL: < 2.9 mg/kg/day
[12]; [30]
  LOAEL: 143 mg/kg/day
  NOAEL: 28.6 mg/kg/day
[12]; [42]
  LEL: 5.7 mg/kg/day
  NEL: < 5.7 mg/kg/day
[13]; [43]
  LEL: 0.79 mg/kg/day
  NEL: < 0.79 mg/kg/day
  NOAEL: 0.79 mg/kg/day
[13]; systemic / organ weight / adrenal gland / absolute + systemic / organ weight / thyroid gland / absolute
  LOAEL: 3.96 mg/kg/day
[14]
  LEL: 1.4 mg/kg/day
  LOAEL: 1.4 mg/kg/day
  NEL: < 1.4 mg/kg/day
  NOAEL: < 1.4 mg/kg/day

## [Na+].[O-][Cl+2]([O-])[O-] [Sodium chlorate]
[15]
  LEL: 1000 mg/kg/day
  LOAEL: 1000 mg/kg/day
  NEL: 100 mg/kg/day
  NOAEL: 100 mg/kg/day

## CC/C(=N\OC/C=C/Cl)C1=C(O)CC(C2CCOCC2)CC1=O (stereo not given) [Tepraloxydim]
[16]; systemic / organ weight / liver / absolute + systemic / organ weight / liver / relative to body weight
  LOAEL: 63.3 mg/kg/day
[16]; systemic / organ weight / liver / absolute + systemic / organ weight / liver / relative to body weight + systemic / clinical chemistry / …
  NOAEL: 12.9 mg/kg/day
[16]; [44]
  LEL: 12.9 mg/kg/day
  NEL: < 12.9 mg/kg/day
[17]; systemic / clinical chemistry / cholesterol / cholesterol + systemic / clinical chemistry / creatinine / creatinine + systemic / clinical …
  LOAEL: 56 mg/kg/day
[17]; [45]
  LEL: 3 mg/kg/day
  NEL: < 3 mg/kg/day
[17]; systemic / pathology gross / urinary bladder / foci + systemic / clinical chemistry / cholesterol / cholesterol + systemic / clinical …
  NOAEL: 11.5 mg/kg/day
[18]; [46]
  LEL: 120 mg/kg/day
  LOAEL: 120 mg/kg/day
  NEL: 40 mg/kg/day
  NOAEL: 40 mg/kg/day
[18]; group: maternal, systemic / in life observation / food consumption / food consumption
  LOAEL: 360 mg/kg/day
[18]; [47]
  LEL: 360 mg/kg/day
  NEL: 120 mg/kg/day
  NOAEL: 120 mg/kg/day
[19]; [48]
  LOAEL: 154 mg/kg/day
  NEL: 5 mg/kg/day
  NOAEL: 29 mg/kg/day
[19]; systemic / pathology microscopic / liver / carcinoma
  LEL: 29 mg/kg/day
[20]
  LEL: 248 mg/kg/day
  LOAEL: 248 mg/kg/day
  NEL: < 248 mg/kg/day
  NOAEL: < 248 mg/kg/day
[21]
  LEL: 52 mg/kg/day
  LOAEL: 52 mg/kg/day
  NEL: < 52 mg/kg/day
  NOAEL: < 52 mg/kg/day
[22]; [49]
  LEL: 267 mg/kg/day
  LOAEL: 267 mg/kg/day
  NEL: 50.3 mg/kg/day
  NOAEL: 50.3 mg/kg/day
[22]; [50]
  LEL: 253 mg/kg/day
  LOAEL: 253 mg/kg/day
  NEL: 50.9 mg/kg/day
  NOAEL: 50.9 mg/kg/day
[23]; [51]
  LEL: 310 mg/kg/day
  LOAEL: 310 mg/kg/day
[23]; [52]
  NEL: 82 mg/kg/day
  NOAEL: 82 mg/kg/day
[24]; systemic / pathology microscopic / liver / eosinophilic focus + systemic / pathology microscopic / liver / infiltration cellular
  LEL: 30 mg/kg/day
[24]; systemic / pathology microscopic / liver / eosinophilic focus + systemic / pathology microscopic / liver / infiltration cellular + systemic…
  NEL: 5 mg/kg/day
[24]; [53]
  LOAEL: 6 mg/kg/day
  NOAEL: < 6 mg/kg/day
[25]; [54]
  LOAEL: 223 mg/kg/day
  NOAEL: 22 mg/kg/day
[25]; [55]
  LEL: 22 mg/kg/day
  NEL: < 22 mg/kg/day
